Data from patent US11591596B2, “Compounds and compositions including phosphorothioated oligodeoxynucleotide, and methods of use thereof” (City of Hope, priority 2015, dated 2023).

Assays:
[1] = tested on: CML CD34+, CD34+CD38+ committed and CD34+CD38− primitive progenitors; assay: Apoptosis of CML progenitors by Annexin V/DAPI staining; format: cell-based, human; details: 500 nM combined with NIL 5 uM, 72 hours, compared with CpG-scramble and NIL
Protocol: CML CD34+, CD34+CD38+ committed and CD34+CD38− primitive progenitors were cultured with CpG-scramble RNA (500 nM), CpG-miR126 inhibitor (500 nM), CpG-scramble RNA (500 nM)+Nilotinib (5 μM), and CpG-miR126 inhibitor (500 nM)+NIL (5 μM) for 72 hours and then apoptosis was analyzed by Annexin V/DAPI staining.
CML CD34+, CD34+CD38+ committed and CD34+CD38− primitive progenitors were cultured with CpG-scramble RNA (500 nM), CpG-anti-miR126 inhibitor (500 nM), CpG-scramble RNA (500 nM)+Nilotinib (NIL, 5 uM), and CpG-anti-miR126 inhibitor (500 nM)+NIL (5 uM) for 72 hours and then cell cycling and apoptosis were analyzed by EDU/DAPi and Annexin V/DAPi staining.

[2] = tested on: CML (K562) and AML cell lines (KG1A, MV4-11, Molm13, NB4, OCI and HL60); assay: Uptake in AML and CML cell lines, Cy3 by flow cytometry; format: cell-based, human; details: 4 hours
Protocol: FIGS. 3A-3G are flow cytometry histograms showing results of CpG-anti-miR-126 uptake in AML and CML cell lines. Cells were cultured with miR126-inhibitor-Cy3 (Cy3-200 nM0, human CD45 (Ab-200 nM) or Transferrin (TF-200 nM)-conjugated nanoparticles (NP) containing antagomiR-126-Cy3, CpG-miR126 inhibitor-Cy3 (CpG-Cy3-200 nM and 500 nM) for 4 hours, then uptake was analyzed by measuring Cy3 expression in these cells by flow cytometry. FIG. 3A is a histogram showing uptake in K562 cells. FIG. 3B is a histogram showing uptake in KG1A AML cells. FIG. 3C is a histogram showing uptake in MV4-11 AML cells. FIG. 3D is a histogram showing uptake in Molm13 AML cells. FIG. 3E is a histogram showing uptake in NB4 AML cells. FIG. 3F is a histogram showing uptake in OCI AML cells. FIG. 3G is a histogram showing uptake in HL60 AML cells.
CML (K562) (FIG. 3A) and AML cell lines (KG1A, MV4-11, Molm13, NB4, OCI and HL60) (FIGS. 3B-3G) were cultured with anti-miR126 inhibitor-Cy3 (Cy3-200 nM) alone, human CD45 (Ab-200 nM) or Transferrin (TF-200 nM)-conjugated nanoparticles (NP) containing anti-miR126-Cy3 or unformulated CpG-anti-miR126 inhibitor—Cy3 in two concentrations (200 nM and 500 nM) for 4 hours, the uptake was analyzed by measuring Cy3 expression in these cells by flow cytometry.

5′ G*G*T GCA TCG ATG CAGG*G*G* G*G (SEQ ID NO: 1) xxxxx mCmGmC mAmUmU mAmUmU mAmCmU mCmAmC mGmGmU mAmCmG mA (SEQ ID NO: 17) 3′ [CpG-anti-miR126]
apoptosis [1]: Increased apoptosis | internalization (Cy3 uptake) ([2]; 200 nM and 500 nM, no transfection reagents): quickly and dose-dependently internalized | level of internalization compared with other oligonucleotides including NP-formulated anti-miR126 inhibitor ([2]; absence of any transfection reagents): exceeded that of all other oligonucleotides
